Legend:
[1] = tested on: HMGN1 secreted from senescent A549 cells; experiment: HMGN1 secretion (ELISA) from senescent A549 cancer cells, Example 12; assay type: cell-based, human; conditions: senescent untreated = 100%; 30 μM; 90 μM for LX-305, 905, 1302, 1601, 1603, 2003, 2702, 2901, 3106; 270 μM for LX-1103, 2005, 2007;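 further: A549 cells made senescent by doxorubicin exposure, with DMSO-treated cells serving as the non-senescent control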
Protocol: Cells were treated with doxorubicin or control (DMSO) and cultured.

[2] = tested on: senescent foreskin cells; experiment: Survival of senescent human cells treated with supernatant (secreted fluid) from death-induced cells, Example 13; assay type: cell-based; conditions: Table 8; supernatant from dying senescent cells treated at 30, 90 or 270 μM (as Example 11); senescent treated cells
Protocol: After 3 days, cell viability was measured using CellTiter-Glo Luminescent Cell Viability Assay (Promega) or light microscopy.
During this additional culture, by checking with an optical microscope, etc., the medium supernatants containing secreted fluid from normally proliferating and senescent cells in which cell death was induced were obtained. The obtained medium supernatant was replaced with the medium of normally proliferating and senescent cells, respectively, and cell survival rate was measured after 3 days.

[3] = tested on: naturally aged mice; experiment: Anti-aging evaluation in naturally aged mice, Example 31, Table 55; assay type: in vivo, mouse; conditions: for Femur Ctsk mRNA / Kidney Agtr1a mRNA / Liver IL6 mRNA / Liver MMP3 mRNA / Liver p16 mRNA / Open Field Test Time in Center: untreated = 100%; for Heart Sur2a mRNA / Joint Col2a1 mRNA / Skin Col1a1 mRNA / Skin SDF1 mRNA: untreated = 1.0; for Muscle Mass: untreated 0.64 g; for Fat Mass: untreated 0.82 g; for Cataract incidence: untreated 83%;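 on all read-outs here: Vehicle-dosed control mice received solution alone at matching volume, values compare test-compound-treated aged mice against that control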
Protocol: After the end of drug administration, the method described in each example below was performed. […] The mRNA amounts of p16, MMP3, and IL6 after natural aging was induced were calculated as 100% and compared with the mRNA amounts of p16, MMP3, and IL6 after treatment with the test compound. In addition, an open field test for the analysis of aging-related frailty, agtr1a mRNA analysis for kidney damage and disease evaluation, col1a1 and SDF1 mRNA analysis for skin aging evaluation such as wrinkles/loss of elasticity/hyperpigmentation, col2a1 mRNA analysis for evaluating joint aging such as osteoarthritis, sur2a mRNA analysis for evaluating cardiac aging such as decreased cardiac load resistance, ctsk mRNA analysis for evaluating bone diseases due to aging such as osteoporosis, muscle tissue weight for analyzing sarcopenia, fat tissue weight for analyzing lipoatrophy, and cataract incidence analysis were performed in mice. For cataract incidence analysis, the drug was administered twice a week under the conditions specified above, and biweekly examinations were conducted until death.

[4] = tested on: bleomycin-induced pulmonary fibrosis mice; experiment: Bleomycin-induced pulmonary fibrosis mice, Example 31, Table 56; assay type: in vivo, mouse; conditions: untreated = 100%
Outline: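 Mice with bleomycin-induced pulmonary fibrosis, untreated or given test compound, with vehicle-only controls. Lung tissue collected for RNA extraction and qRT-PCR analysis.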

[5] = tested on: carbon tetrachloride-induced liver fibrosis mice; experiment: Carbon tetrachloride-induced liver fibrosis mice, Example 31, Table 57; assay type: in vivo, mouse; conditions: CCl4-induced liver fibrosis mice, untreated = 100%
Outline: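 Mice with induced hepatic fibrosis received either the test compound or, as controls, an equal volume of vehicle solution alone. Once dosing ended, liver tissue was harvested and total RNA was isolated. cDNA was synthesized from this RNA, and quantitative RT-PCR was run on it to measure hepatic mRNA levels of the fibrosis- and senescence-related genes.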

Row | Structure (SMILES) | HMGN1 [1] [%] | Survival [2] | Femur Ctsk mRNA [3] [%] | Heart Sur2a mRNA [3] [fold] | Joint Col2a1 mRNA [3] [fold] | Kidney Agtr1a mRNA [3] [%] | Liver IL6 mRNA [3] [%] | Liver MMP3 mRNA [3] [%] | Liver p16 mRNA [3] [%] | Open Field Test Time in Center [3] [%] | Skin Col1a1 mRNA [3] [Fold] | Skin SDF1 mRNA [3] [fold] | Muscle Mass [3] [g] | Fat Mass [3] [g] | Cataract incidence [3] [%] | Lung p16 mRNA [4] | Col1a1 mRNA [4] | Liver p16 mRNA [5] | Col1a1 mRNA [5]
1 | Cc1[nH]nc(C(F)(F)F)c1Cc1sc2c(c1C(=O)N1C[C@](C)(O)CO1)c(=O)n(C)c(=O)n2C(C)C [LX-3203] | 293 | 57.1 | 55 | 1.8 | 1.6 | 68 | 67 | 62 | 66 | 183 | 1.8 | 2.2 | 0.68 | 0.85 | 75 | 69 (±5.0) % | 64 (±4.5) % | 64 (±4.0) % | 66 (±4.5) %
2 | CO[C@]1(C(=O)N[C@@H](C)c2ccc(-n3cc(F)cn3)nc2)CC[C@H](c2nc(C)cc(Nc3cc(C)[nH]n3)n2)CC1 [LX-1902, Pralsetinib] | 271 | 53.4 | 81 | 1.5 | 1.5 | 71 | 79 | 81 | 72 | 157 | 1.2 | 1.6 | 0.68 | 0.95 | 76 | 72 (±8.8) % | 64 (±8.2) % | 77 (±9.6) % | 68 (±5.7) %
3 | C[C@H](N)C(=O)N1C[C@H](CCCB(O)O)[C@](N)(C(=O)O)C1 [LX-3107, Numidargistat] | 267 | 62.1 | 81 | 1.7 | 1.1 | 75 | 49 | 68 | 54 | 167 | 1.2 | 1.4 | 0.67 | 0.99 | 65 | 81 (±3.9) % | 68 (±5.1) % | 80 (±3.6) % | 69 (±8.0) %
